Two compounds from PMC9293634, “Conformational flexibility in carbapenem hydrolysis drives substrate specificity of the class D carbapenemase OXA-24/40” (The Journal of Biological Chemistry, 2022) can be followed below.

Experiment [1] addresses T1, OXA-24/40 (Acinetobacter baumannii, UniProt Q8RLA6, K84D).
T1 construct: gene blaOXA-33
Put plainly: X-ray crystal structure ([…] Å), intact β-lactam. The experiment is classed as binding.

The target of experiment [2] is T1, OXA-24/40. The experiment is described as follows: X-ray crystal structure of acyl-enzyme ([…] Å). The experiment is classed as binding.

T1 sequence (Q8RLA6 32-275 K84D): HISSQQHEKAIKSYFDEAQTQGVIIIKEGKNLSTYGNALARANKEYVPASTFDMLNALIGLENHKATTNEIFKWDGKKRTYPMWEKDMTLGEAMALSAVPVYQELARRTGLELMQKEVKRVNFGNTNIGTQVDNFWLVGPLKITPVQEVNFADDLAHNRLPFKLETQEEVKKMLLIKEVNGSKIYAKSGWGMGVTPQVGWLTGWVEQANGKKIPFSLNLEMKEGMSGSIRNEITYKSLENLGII

As for `C[C@@H](O)[C@H]1C(=O)N2C(C(=O)O)=C(S[C@@H]3CN[C@H](C(=O)Nc4cccc(C(=O)O)c4)C3)[C@H](C)[C@H]12` [ertapenem], the “X-ray crystal structure (2.58 Å), intact β-lactam” value at OXA-24/40 [1] was “In the K84D–ertapenem structure, ertapenem is bound as an intact β-lactam, yet in an unproductive binding mode”.

Consider `C[C@@H](O)[C@H]1C(=O)N2C(C(=O)O)=C(SCCN=CN)C[C@H]12` [imipenem], for which the “X-ray crystal structure of acyl-enzyme (2.28 Å)” value at OXA-24/40 [2] is “A predominant conformation for imipenem was observed in the K84D complex”.
